Data published in US8318644B2, “Lubricating oil” (Idemitsu Kosan Co., Ltd., priority 2003, dated 2012).

Assay: Density of ionic liquids
Assay type: physicochemical
Conditions: 20° C.
Protocol: Density and molecular weight (Mw) of Ionic liquids 1 to 4 were determined at 20° C., and each ion concentration was calculated from the relationship: [density of ionic liquid (g/cm^3)/molecular weight (MW) of ionic liquid (g/mol)]×1000.

Row | Molecule | density [g/mL]
1 | CCCCn1cc[n+](C)c1.F[B-](F)(F)F [Ionic liquid 4, 1-Butyl-3-methylimidazolium tetrafluoroborate] | 1.208
2 | N,N-diethyl-N-methyl(2-methoxyethyl)ammonium bis(trifluoromethanesulfonyl)imide [Ionic liquid 3] | 1.420
3 | CCn1cc[n+](C)c1.F[B-](F)(F)F [Ionic liquid 1, 1-Ethyl-3-methylimidazolium tetrafluoroborate] | 1.283
4 | Butylpyridinium bis(trifluoromethanesulfonyl)imide [Ionic liquid 2] | 1.453
